pIC50: −log10 of the molar value.
Legend:
[1] = target: Mast/stem cell growth factor receptor Kit (Homo sapiens, UniProt P10721); assay: Inhibition of recombinant c-Kit (unknown origin) incubated for 1 hr by ADP-Glo assay
[2] = target: T1, Bifunctional epoxide hydrolase 2 (Homo sapiens, UniProt P34913); assay: Inhibition of His-tagged human recombinant soluble epoxide hydrolase pre-incubated for 15 mins before Epoxy-fluor7 substrate addition and measured after 20 mins by fluorescence based assay
T1 sequence (P34913 whole entry): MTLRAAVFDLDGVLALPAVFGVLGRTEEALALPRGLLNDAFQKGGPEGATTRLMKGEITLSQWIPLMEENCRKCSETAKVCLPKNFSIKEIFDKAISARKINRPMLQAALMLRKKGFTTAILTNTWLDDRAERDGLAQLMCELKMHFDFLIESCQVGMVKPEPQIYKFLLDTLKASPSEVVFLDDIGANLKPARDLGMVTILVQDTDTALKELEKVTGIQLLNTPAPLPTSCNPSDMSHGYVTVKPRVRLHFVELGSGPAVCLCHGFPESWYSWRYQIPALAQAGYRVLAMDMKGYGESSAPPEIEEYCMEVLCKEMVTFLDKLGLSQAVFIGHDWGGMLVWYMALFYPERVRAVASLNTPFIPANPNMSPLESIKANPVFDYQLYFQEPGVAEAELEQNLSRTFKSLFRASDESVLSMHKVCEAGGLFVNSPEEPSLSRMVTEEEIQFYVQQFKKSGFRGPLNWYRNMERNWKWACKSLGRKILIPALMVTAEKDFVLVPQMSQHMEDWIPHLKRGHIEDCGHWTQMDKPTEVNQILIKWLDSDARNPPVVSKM

Estrogen receptor = target: T2, Estrogen receptor (Homo sapiens, UniProt P03372); assay: Inhibition of His-tagged human ERalpha pre-incubated for 15 mins before fluorescent ligand addition and measured after 1 hr by fluorescence polarization assay
T2 sequence (P03372 whole entry): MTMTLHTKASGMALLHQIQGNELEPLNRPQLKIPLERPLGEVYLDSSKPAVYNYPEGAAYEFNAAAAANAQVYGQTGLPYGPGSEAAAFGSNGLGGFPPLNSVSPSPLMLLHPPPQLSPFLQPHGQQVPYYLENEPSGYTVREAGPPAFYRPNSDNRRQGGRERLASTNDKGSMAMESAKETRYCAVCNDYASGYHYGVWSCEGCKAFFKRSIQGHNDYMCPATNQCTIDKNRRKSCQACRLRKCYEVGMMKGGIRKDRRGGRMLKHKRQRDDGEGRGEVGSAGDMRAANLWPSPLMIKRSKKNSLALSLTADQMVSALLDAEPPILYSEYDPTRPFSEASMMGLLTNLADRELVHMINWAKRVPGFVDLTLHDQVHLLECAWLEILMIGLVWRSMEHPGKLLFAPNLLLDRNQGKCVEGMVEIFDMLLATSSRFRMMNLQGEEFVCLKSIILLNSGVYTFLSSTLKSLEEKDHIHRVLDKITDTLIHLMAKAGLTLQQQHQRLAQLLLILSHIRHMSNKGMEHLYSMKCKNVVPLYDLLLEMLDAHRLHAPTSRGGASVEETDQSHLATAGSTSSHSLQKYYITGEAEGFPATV

Mast/stem cell growth factor receptor Kit, sequence (P10721 whole entry): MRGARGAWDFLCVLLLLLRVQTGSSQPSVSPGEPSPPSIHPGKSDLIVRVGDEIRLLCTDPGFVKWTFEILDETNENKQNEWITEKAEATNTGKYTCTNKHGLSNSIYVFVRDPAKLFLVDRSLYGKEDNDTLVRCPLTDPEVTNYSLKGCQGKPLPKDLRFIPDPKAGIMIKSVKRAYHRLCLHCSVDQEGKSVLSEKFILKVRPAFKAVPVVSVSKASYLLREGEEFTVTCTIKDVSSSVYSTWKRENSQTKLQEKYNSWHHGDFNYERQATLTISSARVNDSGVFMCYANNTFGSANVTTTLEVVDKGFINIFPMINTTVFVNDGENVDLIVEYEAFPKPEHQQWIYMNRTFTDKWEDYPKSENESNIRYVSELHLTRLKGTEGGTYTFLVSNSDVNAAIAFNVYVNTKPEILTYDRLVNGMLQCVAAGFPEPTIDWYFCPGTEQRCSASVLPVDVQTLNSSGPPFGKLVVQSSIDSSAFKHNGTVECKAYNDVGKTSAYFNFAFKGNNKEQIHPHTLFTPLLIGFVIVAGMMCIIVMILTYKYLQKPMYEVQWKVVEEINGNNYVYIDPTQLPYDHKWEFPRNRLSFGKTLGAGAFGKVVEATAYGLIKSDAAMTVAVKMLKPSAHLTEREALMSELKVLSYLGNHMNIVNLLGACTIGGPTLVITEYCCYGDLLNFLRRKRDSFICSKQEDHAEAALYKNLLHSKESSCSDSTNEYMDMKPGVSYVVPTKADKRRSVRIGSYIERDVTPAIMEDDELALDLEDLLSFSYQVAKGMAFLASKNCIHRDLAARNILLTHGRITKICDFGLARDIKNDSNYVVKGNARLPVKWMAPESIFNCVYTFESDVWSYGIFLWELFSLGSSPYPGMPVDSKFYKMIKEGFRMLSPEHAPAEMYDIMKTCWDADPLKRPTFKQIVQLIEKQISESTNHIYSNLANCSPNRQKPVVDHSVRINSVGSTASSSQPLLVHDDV

| pIC50 [1] | pIC50 [2] | pIC50 (Estrogen receptor) | Compound |
| --- | --- | --- | --- |
| 8.05 |  |  | CC(OC(=O)c1ccc2nc(N)sc2c1)C(=O)Nc1ccc(C(C)(C)C)cc1 (stereo unspecified) |
|  | 9.00 |  | O=C(Nc1ccc(Sc2ccccc2Cl)cc1)C1CCN(C(=O)c2ccc(F)cc2)CC1 |
|  |  | 7.70 | CN1c2ccccc2C2(C)CCCC3Cc4cc(Br)cc(Br)c4OC312 (stereo unspecified) |
| 7.68 |  |  | CC(C)COC(=O)N1CCN(C(=O)C=CC(=O)Nc2ccc(Cl)cc2)CC1 |
|  |  | 8.10 | Cc1ccccc1C(OC(c1ccccc1C)c1ccccc1C)c1ccccc1C |
|  | 8.70 |  | O=C(NC1CCC2CCCC2C1)C1CCCN(S(=O)(=O)c2cccs2)C1 (stereo unspecified) |

Source: ChEMBL document CHEMBL4725248, “Machine Learning on DNA-Encoded Libraries: A New Paradigm for Hit Finding” (J Med Chem, 2020)
